Measured values from PubChem BioAssay (NCI).
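Tested at 5 concentrations; 48 h exposure; 96-well plates; endpoints linearly interpolated, else capped at highest concentration. TGI denotes the concentration required for complete inhibition of growth.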

Columns and labels:
Experiment in all cases: NCI tumour cell line growth inhibition, 48 h
[1] = system: 786-0 renal
[2] = system: A498 renal
[3] = system: A549 NSCLC
[4] = system: ACHN renal
[5] = system: BT-549 breast
[6] = system: CAKI-1 renal
[7] = system: CCRF-CEM leukemia
[8] = system: COLO 205 colon
[9] = system: DU-145 prostate
[10] = system: EKVX NSCLC
[11] = system: HCC-2998 colon
[12] = system: HCT-116 colon
[13] = system: HCT-15 colon
[14] = system: HL-60(TB) leukemia
[15] = system: HOP-62 NSCLC
[16] = system: HOP-92 NSCLC
[17] = system: HS 578T breast
[18] = system: HT29 colon
[19] = system: IGROV1 ovarian
[20] = system: K-562 leukemia
[21] = system: KM12 colon
[22] = system: LOX IMVI melanoma
[23] = system: M14 melanoma
[24] = system: MALME-3M melanoma
[25] = system: MCF7 breast
[26] = system: MDA-MB-231 breast
[27] = system: MDA-MB-435
[28] = system: MDA-N
[29] = system: MOLT-4 leukemia
[30] = system: NCI-H226 lung
[31] = system: NCI-H23 lung
[32] = system: NCI-H460 lung
[33] = system: NCI-H522 lung
[34] = system: NCI/ADR-RES ovarian
[35] = system: OVCAR-3 ovarian
[36] = system: OVCAR-4 ovarian
[37] = system: OVCAR-5 ovarian
[38] = system: OVCAR-8 ovarian
[39] = system: RPMI-8226 leukemia
[40] = system: RXF 393 renal
[41] = system: SF-268 CNS
[42] = system: SF-295 CNS
[43] = system: SF-539 CNS
[44] = system: SK-MEL-2 melanoma
[45] = system: SK-MEL-28 melanoma
[46] = system: SK-MEL-5 melanoma
[47] = system: SK-OV-3 ovarian
[48] = system: SN12C renal
[49] = system: SNB-19 CNS
[50] = system: SNB-75 CNS
[51] = system: SR leukemia
[52] = system: SW-620 colon
[53] = system: T-47D breast
[54] = system: TK-10 renal
[55] = system: UACC-257 melanoma
[56] = system: UACC-62 melanoma
[57] = system: UO-31 renal
[58] = system: PC-3 prostate
[59] = system: U251 CNS

SMILES: CC(C)c1ccc2c(c1)[C@@]1(C)CC[C@H](C)C(C)(C)C1CC2 (stereo partly specified)
- TGI [1]: 33.4 µM
- TGI [2]: 34.9 µM
- TGI [3]: 32.1 µM
- TGI [4]: 32.6 µM
- TGI [5]: 35 µM
- TGI [6]: 50.6 µM
- TGI [7]: 47.7 µM
- TGI [8]: 42.1 µM
- TGI [9]: 59.4 µM
- TGI [10]: 35.2 µM
- TGI [11]: 41.3 µM
- TGI [12]: 34.9 µM
- TGI [13]: 34 µM
- TGI [14]: 63.6 µM
- TGI [15]: 35.2 µM
- TGI [16]: 36.3 µM
- TGI [17]: 47.4 µM
- TGI [18]: 31.3 µM
- TGI [19]: > 100 µM
- TGI [20]: > 100 µM
- TGI [21]: 38.4 µM
- TGI [22]: 32 µM
- TGI [23]: 34.8 µM
- TGI [24]: 37 µM
- TGI [25]: 32.1 µM
- TGI [26]: 34 µM
- TGI [27]: 31.3 µM
- TGI [28]: 56.3 µM
- TGI [29]: 94.7 µM
- TGI [30]: 32.3 µM
- TGI [31]: 35.6 µM
- TGI [32]: 36.9 µM
- TGI [33]: 75.3 µM
- TGI [34]: 36.6 µM
- TGI [35]: 63 µM
- TGI [36]: 30.3 µM
- TGI [37]: 52.6 µM
- TGI [38]: 33.1 µM
- TGI [39]: 41.1 µM
- TGI [40]: 33.2 µM
- TGI [41]: 36 µM
- TGI [42]: 38.3 µM
- TGI [43]: 39.6 µM
- TGI [44]: 63.3 µM
- TGI [45]: 31.6 µM
- TGI [46]: 41.4 µM
- TGI [47]: 33.9 µM
- TGI [48]: 31.8 µM
- TGI [49]: 35.3 µM
- TGI [50]: 31.6 µM
- TGI [51]: 67.5 µM
- TGI [52]: > 100 µM
- TGI [53]: 66.4 µM
- TGI [54]: 33.1 µM
- TGI [55]: 36.7 µM
- TGI [56]: 29.9 µM
- TGI [57]: > 100 µM

SMILES: CC(=O)Oc1ccn2nc(C)c(Cc3c(C)nn4ccc(OC(C)=O)cc34)c2c1
- TGI [1]: > 100 µM
- TGI [3]: > 100 µM
- TGI [4]: > 100 µM
- TGI [6]: > 100 µM
- TGI [7]: 76.6 µM
- TGI [9]: > 100 µM
- TGI [10]: > 100 µM
- TGI [12]: > 100 µM
- TGI [13]: > 100 µM
- TGI [14]: > 100 µM
- TGI [15]: > 100 µM
- TGI [16]: > 100 µM
- TGI [17]: > 100 µM
- TGI [18]: > 100 µM
- TGI [19]: > 100 µM
- TGI [20]: > 100 µM
- TGI [21]: > 100 µM
- TGI [22]: > 100 µM
- TGI [23]: > 100 µM
- TGI [24]: > 100 µM
- TGI [25]: > 10 µM
- TGI [26]: > 100 µM
- TGI [27]: 50.4 µM
- TGI [28]: > 10 µM
- TGI [29]: > 100 µM
- TGI [30]: > 100 µM
- TGI [31]: > 100 µM
- TGI [32]: > 100 µM
- TGI [33]: > 100 µM
- TGI [34]: > 100 µM
- TGI [35]: > 100 µM
- TGI [36]: > 100 µM
- TGI [37]: > 100 µM
- TGI [38]: > 100 µM
- TGI [58]: > 10 µM
- TGI [41]: > 100 µM
- TGI [42]: 68.8 µM
- TGI [43]: > 100 µM
- TGI [44]: > 100 µM
- TGI [45]: > 100 µM
- TGI [46]: > 100 µM
- TGI [48]: > 100 µM
- TGI [49]: > 100 µM
- TGI [50]: > 100 µM
- TGI [51]: > 100 µM
- TGI [52]: > 100 µM
- TGI [53]: > 100 µM
- TGI [54]: > 100 µM
- TGI [59]: > 100 µM
- TGI [55]: > 100 µM
- TGI [56]: > 100 µM

SMILES: CCOC(=O)CSc1[nH]c2nc(C)nc(Cl)c2c1C#N
- TGI [1]: > 10 µM
- TGI [3]: > 10 µM
- TGI [6]: > 10 µM
- TGI [7]: > 10 µM
- TGI [8]: > 10 µM
- TGI [9]: > 10 µM
- TGI [10]: > 10 µM
- TGI [11]: > 10 µM
- TGI [13]: > 10 µM
- TGI [14]: > 10 µM
- TGI [15]: > 10 µM
- TGI [16]: > 10 µM
- TGI [18]: > 10 µM
- TGI [19]: > 10 µM
- TGI [20]: > 10 µM
- TGI [21]: > 10 µM
- TGI [22]: > 10 µM
- TGI [23]: > 10 µM
- TGI [24]: > 10 µM
- TGI [25]: > 10 µM
- TGI [26]: > 10 µM
- TGI [27]: > 10 µM
- TGI [28]: > 10 µM
- TGI [29]: > 10 µM
- TGI [31]: > 10 µM
- TGI [36]: > 10 µM
- TGI [38]: > 10 µM
- TGI [58]: > 10 µM
- TGI [39]: > 10 µM
- TGI [40]: > 10 µM
- TGI [41]: > 10 µM
- TGI [42]: > 10 µM
- TGI [45]: > 10 µM
- TGI [46]: > 10 µM
- TGI [47]: > 10 µM
- TGI [48]: > 10 µM
- TGI [50]: > 10 µM
- TGI [51]: > 10 µM
- TGI [52]: > 10 µM
- TGI [53]: > 10 µM
- TGI [54]: > 10 µM
- TGI [55]: > 10 µM
- TGI [56]: > 10 µM
